Results: US20250049812A1, “Compounds that Inhibit Necroptosis and Their Preparation Methods” (SHANGHAI INSTITUTE OF ORGANIC CHEMISTRY, CHINESE ACADEMY OF …, priority 2021, published 2025)
Read-outs that look alike come from different tables or passages of the source.

Tests used:
[1] = tested on: Jurkat FADD (−/−) Cells; experiment: TNF-α induced necroptosis of Jurkat FADD-deficient cells (CellTiter-Glo cell survival); type: cell-based, human; settings: TNF-α induced necroptosis, Jurkat FADD-deficient cells, 13 hours, CellTiter-Glo, read-out: IC50
Procedure, shortened: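 Cells in RPMI 1640 with 10% FBS were pretreated for 1 h at 37 °C with compound (12-point threefold series from 25 μM, or 0.5 μM, in triplicate). They were then stimulated with TNFα added as a 5 ng/mL solution for 13 h. Survival was read by luminescence.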

[2] = target: T1, RIPK1 (Homo sapiens, UniProt Q13546); experiment: RIPK1 activity inhibition test (NANOSYN); type: biochemical; settings: 12 concentrations, threefold dilution, 1% DMSO
T1 sequence (Q13546 1-671): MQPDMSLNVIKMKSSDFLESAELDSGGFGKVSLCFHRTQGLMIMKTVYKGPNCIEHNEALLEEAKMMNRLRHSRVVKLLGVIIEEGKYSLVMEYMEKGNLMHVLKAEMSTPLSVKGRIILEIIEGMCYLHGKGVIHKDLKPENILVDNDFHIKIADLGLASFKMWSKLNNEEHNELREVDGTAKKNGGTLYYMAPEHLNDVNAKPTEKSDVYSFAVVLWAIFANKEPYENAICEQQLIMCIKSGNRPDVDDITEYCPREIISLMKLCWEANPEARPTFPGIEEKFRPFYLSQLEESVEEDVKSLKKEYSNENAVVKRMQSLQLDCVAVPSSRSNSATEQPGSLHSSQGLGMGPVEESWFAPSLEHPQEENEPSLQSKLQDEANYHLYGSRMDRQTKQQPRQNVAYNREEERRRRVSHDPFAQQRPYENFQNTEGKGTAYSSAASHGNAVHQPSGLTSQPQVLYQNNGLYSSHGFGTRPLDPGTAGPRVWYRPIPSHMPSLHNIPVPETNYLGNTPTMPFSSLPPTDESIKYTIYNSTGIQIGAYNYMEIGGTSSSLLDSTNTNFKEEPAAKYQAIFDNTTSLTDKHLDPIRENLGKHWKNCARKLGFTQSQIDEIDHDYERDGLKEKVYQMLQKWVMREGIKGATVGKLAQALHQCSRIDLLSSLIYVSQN
Experimental: The test compounds were dissolved in DMSO, with the highest concentration being […]. Subsequently, the concentrations were serially diluted threefold, with the DMSO concentration in the test medium maintained at 1%. IC50 values were calculated from data generated prom 12 tested concentrations.

[3] = Study of oral pharmacokinetics in rats; settings: rat, in vivo, male SD rats, p.o.; for bioavailability: i.v. 1 mg/kg; for AUC(0-t): read-out: AUC0-8
Experimental: Healthy male SD rats were used as experimental animals. The intragastric (p.o.) administration was performed, with a dosage of 5 mg/kg or 15 mg/kg. Preparation: the compound was dissolved in a formulation made of 1% tween 80, 1% HMPC, and 98% water. The mixture was ground and shaken until the compound was uniformly distributed with a small particle size, and then 1 equivalent of methanesulfonic acid was added. The intravenous administration was performed with a dosage of 1 mg/kg. Preparation: 5% DMSO, 10% EtOH, 10% sulotol, and 75% physiological saline was added to the compound, and mixed well. Samples were taken at 5 minutes, 15 minutes, 30 minutes, 1 hour, 2 hours, 4 hours, 6 hours, and 8 hours after administration, and then the samples were analyzed using liquid chromatography tandem mass spectrometry (LC-MS/MS).

| Compound | IC50 [2] [nM] | Cmax ([3]; 5 mg/kg) [ng/mL] | Tmax ([3]; 5 mg/kg) [h] | half-life ([3]; 5 mg/kg) [h] | bioavailability ([3]; 5 mg/kg) [%] | AUC(0-t) ([3]; 5 mg/kg) [ng·h/mL] | IC50 ([1]; Homo sapiens) [nM] | other results |
| --- | --- | --- | --- | --- | --- | --- | --- | --- |
| CN1C(=O)C(NC(=O)c2nnc(Cc3ccccc3)[nH]2)Cn2cc(-c3ccnn3C)c3cccc1c32 (racemic) [T-16, (±)-5-benzyl-N-(1-methyl-7-(1-methyl-1H-pyrazol-5-yl)-2-oxy-1,2,3,4-tetrahydro-[1,4]diazepino [3,2,1-hi]indol-3-yl)-4H-1,2,4-triazole-3-carboxamide] | 47.8 | – | – | – | – | – | < 10 | – |
| CN1C(=O)C(NC(=O)c2nnc(Cc3ccccc3)[nH]2)Cc2cn(-c3cnn(C)c3)c3cccc1c23 (racemic) [T-34, (±)-5-benzyl-N-(1-methyl-6-(1-methyl-1H-pyrazol-4-yl)-2-oxo-2,3,4,6-tetrahydro-1H-azacyclo [4,3,2-cd]indol-3-yl)-4H-1,2,4-triazole-3-carboxamide] | 50.4 | – | – | – | – | – | < 10 | – |
| Cc1c(-c2cn3c4c(cccc24)N(C)C(=O)[C@@H](NC(=O)c2nnc(Cc4ccccc4)[nH]2)C3)cnn1C [T-125, (S)-5-benzyl-N-(7-(1,5-dimethyl-1H-pyrazol-4-yl)-1-methyl-2-oxo-1,2,3,4-tetrahydro-1,4-diazepine [3,2,1-hi]indol-3-yl)-4H-1,2,4-triazole-3-carboxamide] | – | – | – | – | – | – | < 10 | – |
| CN1C(=O)[C@@H](NC(=O)c2nnc(Cc3ccccc3)[nH]2)Cn2cc(-c3cnc(Cl)n3C)c3cccc1c32 [T-126, (S)-5-benzyl-N-(7-(2-chloro-1-methyl-1H-imidazol-5-yl)-1-methyl-2-oxo-1,2,3,4-tetrahydro-1,4-diazepine [3,2,1-hi]indol-3-yl)-4H-1,2,4-triazole-3-carboxamide] | – | – | – | – | – | – | 10 to 100 | – |
| CN1C(=O)[C@@H](NC(=O)c2ncc(Cc3ccccc3)o2)Cn2cc(-c3cn(C)nc3C(F)(F)F)c3cccc1c32 [T-127, (S)-5-benzyl-N-(1-methyl-7-(1-methyl-3-(trifluoromethyl)-1H-pyrazol-4-yl)-2-oxo-1,2,3,4-tetrahydro-[1,4]diazepine [3,2,1-hi]indol-3-yl)oxazole-2-carboxamide] | – | – | – | – | – | – | < 10 | – |
| (±)-5-(3-(5-benzyl-4H-1,2,4-triazole-3-carboxamido)-1-methyl-2-oxo-1,2,3,4-tetrahydro-6H-azacyclo [4,3,2-cd] indol-6-yl)oxazole-4-carboxylate [T-98] | – | – | – | – | – | – | – | IC50 [1]: < 10 nM |

Now from value to compound, other results behind:

| IC50 [2] [nM] | Cmax ([3]; 5 mg/kg) [ng/mL] | Tmax ([3]; 5 mg/kg) [h] | half-life ([3]; 5 mg/kg) [h] | bioavailability ([3]; 5 mg/kg) [%] | AUC(0-t) ([3]; 5 mg/kg) [ng·h/mL] | Compound | IC50 ([1]; Homo sapiens) [nM] | other results |
| --- | --- | --- | --- | --- | --- | --- | --- | --- |
| – | 2230 | 1 | 3.26 | 31.4 | 9040 | CN1C(=O)C(NC(=O)c2nnc(Cc3ccccc3)[nH]2)Cc2cn(-c3ncccc3C(F)(F)F)c3cccc1c23 (racemic) [T-40, (±)-5-benzyl-N-(1-methyl-2-oxo-6-(3-(trifluoromethyl)pyridin-2-yl)-2,3,4,6-tetrahydro-1H-azacyclo [4,3,2-cd]indol-3-yl)-4H-1,2,4-triazole-3-carboxamide] | < 10 | – |
| 15.2 | 1270 | 1 | 3.76 | 28.2 | 4900 | CN1C(=O)[C@@H](NC(=O)c2nnc(Cc3ccccc3)[nH]2)Cc2cn(-c3ncccc3C(F)(F)F)c3cccc1c23 [T-96, (S)-5-benzyl-N-(1-methyl-2-oxo-6-(3-(trifluoromethyl)pyridin-2-yl)-2,3,4,6-tetrahydro-1H-azacyclo [4,3,2-cd]indol-3-yl)-4H-1,2,4-triazole-3-carboxamide] | < 10 | – |
| 28.3 | 494 | 0.75 | 1.99 | 18.3 | 1700 | CN1C(=O)[C@@H](NC(=O)c2nnc(Cc3ccccc3)[nH]2)Cc2cn(-c3ncccc3OC(F)F)c3cccc1c23 [T-112, (S)-5-benzyl-N-(6-(3-(difluoromethoxy)pyridin-2-yl)-1-methyl-2-oxo-2,3,4,6-tetrahydro-1H-aza [4,3,2-cd]indol-3-yl)-4H-1,2,4-triazole-3-carboxamide] | < 10 | Cmax ([3]; 15 mg/kg): 3930 ng/mL; Tmax ([3]; 15 mg/kg): 1.5 h; half-life ([3]; 15 mg/kg): 1.91 h; bioavailability ([3]; 15 mg/kg): 57.1%; AUC(0-t) ([3]; 15 mg/kg): 15900 ng·h/mL |
| 24.9 | – | – | – | – | – | CN1C(=O)[C@@H](NC(=O)c2nnc(Cc3ccccc3)[nH]2)Cn2cc(-c3cn(C)nc3C(F)(F)F)c3cccc1c32 [T-118, (S)-5-benzyl-N-(1-methyl-7-(1-methyl-3-(trifluoromethyl)-1H-pyrazol-4-yl)-2-oxo-1,2,3,4-tetrahydro-[1,4]diazepine [3,2,1-hi]indol-3-yl)-4H-1,2,4-triazole-3-carboxamide] | < 10 | – |
